Two compounds from ChEMBL document CHEMBL4834482, “Concise solid-phase synthesis enables derivatisation of YEATS domain cyclopeptide inhibitors for improved cellular uptake” (Bioorg Med Chem, 2021) can be followed below.

The target in assay [1] is T1, Protein AF-9 (Homo sapiens, UniProt P42568).
T1 sequence (P42568 whole entry): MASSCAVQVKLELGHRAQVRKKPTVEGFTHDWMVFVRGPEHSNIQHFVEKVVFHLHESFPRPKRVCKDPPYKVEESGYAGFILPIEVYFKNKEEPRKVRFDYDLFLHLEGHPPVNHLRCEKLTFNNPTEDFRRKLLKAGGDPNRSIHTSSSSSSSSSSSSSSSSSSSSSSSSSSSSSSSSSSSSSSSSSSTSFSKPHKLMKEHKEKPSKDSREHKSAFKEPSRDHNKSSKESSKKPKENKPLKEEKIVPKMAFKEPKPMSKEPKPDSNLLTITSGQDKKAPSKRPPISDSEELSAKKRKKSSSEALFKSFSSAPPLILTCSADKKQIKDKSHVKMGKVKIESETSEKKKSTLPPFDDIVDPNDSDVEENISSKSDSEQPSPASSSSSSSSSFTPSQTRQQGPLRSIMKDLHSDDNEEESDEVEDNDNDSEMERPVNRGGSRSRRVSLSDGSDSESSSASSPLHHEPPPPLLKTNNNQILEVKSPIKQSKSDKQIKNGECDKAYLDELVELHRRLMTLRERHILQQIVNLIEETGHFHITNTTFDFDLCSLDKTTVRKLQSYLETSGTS
As to the kind of experiment: Inhibition of AF9 YEATS domain (1 to 138 residues) (unknown origin) assessed as inhibition of probe-1 induced AF9 YEATS domain labelling incubated for 10 mins followed by UV-irradiation for 20 mins by Photo-cross linking based In-gel fluorescence scanning analysis.

The target in assay [2] is T1, Protein AF-9. As to the kind of experiment: Binding affinity to AF9 YEATS domain (1 to 138 residues) (unknown origin) by isothermal titration calorimetry. Background: Isothermal titration calorimetry measures the heat released or taken up as one component is titrated into another.

As a reminder, the IC50 is the concentration that inhibits the measured activity by half. One may read the Kd as the free concentration of one partner at which half of the binding sites on the other are occupied at equilibrium, for simple one-to-one binding. A high value points to weaker binding. As for `C[C@@H]1NC(=O)[C@H]([C@H](C)O)NC(=O)[C@@H](NC(=O)OCc2ccccc2)CCCCNC(=N)NCCC[C@H](C(=O)N[C@@H](CCCCNC(=O)c2cnco2)C(N)=O)NC1=O`, at Protein AF-9 [1], the IC50 worked out at 0.41 µM. Also, at Protein AF-9 [2], binding was characterised by a dissociation constant (Kd) of 0.37 µM.

Turning to `CC(=O)N[C@@H](Cc1ccc(O)cc1)C(=O)NCC(=O)N[C@@H](CCCNC(=N)N)C(=O)N[C@@H](CCCCN)C(=O)N[C@@H](CCCCN)C(=O)N[C@@H](CCCNC(=N)N)C(=O)N[C@@H](CCCNC(=N)N)C(=O)N[C@@H](CCC(N)=O)C(=O)N[C@@H](CCCNC(=N)N)C(=O)N[C@@H](CCCNC(=N)N)C(=O)N[C@@H](CCCNC(=N)N)C(=O)NCCCC[C@@H]1NC(=O)[C@H]([C@@H](C)O)NC(=O)[C@@H](NC(=O)OCc2ccccc2)CCCCNC(=N)NCCC[C@@H](C(=O)N[C@@H](CCCCNC(=O)c2cnco2)C(N)=O)NC1=O`, the IC50 on Protein AF-9 [1] was 1.74 µM. This compound also displayed a dissociation constant Kd on Protein AF-9 [2] of 0.8 µM.
